Test results taken from ChEMBL document CHEMBL4342452, “Water-Soluble Glutamic Acid Derivatives Produced in Culture by Penicillium solitum IS1-A from King George Island, Maritime Antarctica” (J Nat Prod, 2020).
Active and inactive are the calls of the source. No cut-off for these calls is given here.

Columns and labels:
HeLa = assay: Cytotoxicity against human HeLa cells after 24 hrs by tetrazolium dye based assay; assay type: functional, cell-based
A549 = assay: Cytotoxicity against human A549 cells after 24 hrs by tetrazolium dye based assay; assay type: functional, cell-based
Klebsiella pneumoniae = assay: Antibacterial activity against Klebsiella pneumoniae ATCC 700603 incubated for 18 hrs by microdilution method; assay type: functional, organism-based
Enterococcus faecalis = assay: Antibacterial activity against Enterococcus faecalis ATCC 29212 incubated for 18 hrs by microdilution method; assay type: functional, organism-based
MCF-10A = assay: Cytotoxicity against human MCF10A cells after 24 hrs by tetrazolium dye based assay; assay type: cell-based
Homo sapiens = species: Homo sapiens; assay: Cytotoxicity against human ACP01 cells after 24 hrs by tetrazolium dye based assay; assay type: functional, cell-based
Pseudomonas aeruginosa = assay: Antibacterial activity against Pseudomonas aeruginosa ATCC 27853 incubated for 18 hrs by microdilution method; assay type: functional, organism-based
Staphylococcus aureus = assay: Antibacterial activity against Staphylococcus aureus ATCC 29213 incubated for 18 hrs by microdilution method; assay type: functional, organism-based
MCF7 = assay: Cytotoxicity against human MCF7 cells after 24 hrs by tetrazolium dye based assay; assay type: functional, cell-based

SMILES | Activity (HeLa) | Activity (A549) | Activity (Klebsiella pneumoniae) | Activity (Enterococcus faecalis) | Activity (MCF-10A) | Activity (Homo sapiens) | Activity (Pseudomonas aeruginosa) | Activity (Staphylococcus aureus) | Activity (MCF7)
C=CC(C)(C)c1[nH]c2ccccc2c1CCNC(=O)CC[C@H](O)C(=O)O | inactive | inactive | inactive | inactive | Non-Toxic | inactive | inactive | inactive | inactive
C=CC(C)(C)c1[nH]c2ccccc2c(=O)c1CNC(=O)CC[C@H](N)C(=O)O | inactive | inactive | inactive | inactive | Non-Toxic | inactive | inactive | inactive | inactive
C=CC(C)(C)C(=O)Nc1ccccc1C(=O)CCNC(=O)CC[C@H](N)C(=O)O | inactive | inactive | inactive | inactive | Non-Toxic | inactive | inactive | inactive | inactive
C=CC(C)(C)[C@@]1(CCNC(=O)CC[C@H](N)C(=O)O)C(=O)Nc2ccccc21 | inactive | inactive | inactive | inactive | Non-Toxic | inactive | inactive | inactive | inactive
C=CC(C)(C)c1[nH]c2ccccc2c1CCNC(=O)CC[C@H](N)C(=O)O | inactive | inactive | inactive | inactive | Non-Toxic | inactive | inactive | inactive | inactive
C=CC(C)(C)[C@H]1Nc2ccccc2C(=O)[C@@H]1CNC(=O)CC[C@H](N)C(=O)O | inactive | inactive | inactive | inactive | Non-Toxic | inactive | inactive | inactive | inactive
